For test [1], the target named is T1, Recombinant human His6-USP1/His6-UAF1 complex protein (Homo sapiens, UniProt O94782).
T1 construct: His6; purchased R&D E-568-050
The test is described as follows: In vitro inhibitory activity against USP1 (Ubiquitin Rhodamine 110 fluorescence detection, 384-well plate). Conditions: Ub-Rho substrate, 1 hour pre-incubation, read after 30 minutes. The test is classed as biochemical. Summed up: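 Compounds, kept as 50 mM DMSO stocks, were acoustically dispensed into modified Tris buffer. Inhibition of recombinant human His6-USP1/His6-UAF1 was read by fluorescence from cleavage of Ub-Rho110 substrate.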

Test [2] has as its system MDA-MB-436. The test is described as follows: CTG experiment for cell viability (CellTiter-Glo, 96-well plate, 7 days). Type of test: cell-based. Conditions: Homo sapiens, MDA-MB-436, 168 h, MDA-MB-436 cells, 7 days culture with compound. As for the experimental part:
Test Example 2: CTG experiment for cell viability
• 1. Object: to screen USP1 inhibitors by a CTG assay, using a 96-well plate. • 2. Materials: • The cells used were MDA-MB-436 (manufacturer: Nanjing Cobioer Biotechnology Co., Ltd.) and cultured in DMEM medium, • CTG (CellTiter-Glo® Luminescent Cell Viability Assay kit) (Promega, Cat. No.: G7572), • 96-well plate (Corning, Cat. No.: 3610). • 3. Compounds: all compounds were dissolved in 100% DMSO to obtain 50 mM stock solutions. • 4. Experimental method: • ① Plating: The cells to be tested were spread into a 96-well plate at a certain density, with 200 µL per well, and 200 µL of cell medium was added to the blank wells. […] The cell plate with the compounds was placed in an incubator at 37°C, and further cultured for 7 days prior to detection. • ④ Assay: The substrate and the buffer of CTG kit were mixed evenly. The cell plate with the compounds in Step ③ was taken out from the incubator, and left at room temperature to equilibrate for 30 minutes. The medium containing the compounds was removed from the cell plate, 100 µL of PBS and 50 µL of CTG reagent were added to each well, shaken and mixed for 3 minutes, and then incubated for 10 minutes at room temperature. The plate was read by a BIotek microplate-reader, with a parameter set to 567 CPM. • 5. Curve fitting
It was the same as that for the enzyme.

In general, IC50 refers to the midpoint of a concentration-inhibition curve.

T1 sequence (O94782 whole entry): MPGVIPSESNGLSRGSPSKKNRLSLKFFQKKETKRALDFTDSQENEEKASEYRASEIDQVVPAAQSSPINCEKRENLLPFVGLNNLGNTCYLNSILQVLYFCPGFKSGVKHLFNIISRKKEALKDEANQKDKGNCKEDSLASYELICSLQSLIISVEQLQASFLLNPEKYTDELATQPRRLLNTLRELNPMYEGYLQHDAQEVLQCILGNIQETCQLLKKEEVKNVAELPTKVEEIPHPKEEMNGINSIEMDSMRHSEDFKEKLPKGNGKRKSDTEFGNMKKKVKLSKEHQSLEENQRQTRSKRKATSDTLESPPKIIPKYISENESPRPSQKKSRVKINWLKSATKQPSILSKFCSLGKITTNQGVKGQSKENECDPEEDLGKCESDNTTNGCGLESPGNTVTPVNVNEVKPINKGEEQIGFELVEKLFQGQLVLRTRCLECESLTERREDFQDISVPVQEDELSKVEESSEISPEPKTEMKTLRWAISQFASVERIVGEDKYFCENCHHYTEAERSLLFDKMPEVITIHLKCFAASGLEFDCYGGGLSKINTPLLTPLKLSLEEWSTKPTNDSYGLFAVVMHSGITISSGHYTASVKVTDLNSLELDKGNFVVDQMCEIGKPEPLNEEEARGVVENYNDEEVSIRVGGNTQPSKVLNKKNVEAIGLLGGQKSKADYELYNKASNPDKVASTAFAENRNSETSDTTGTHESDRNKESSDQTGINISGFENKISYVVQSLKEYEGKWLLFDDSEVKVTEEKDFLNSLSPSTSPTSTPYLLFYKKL
T1 sequence (Q8TAF3 whole entry partner): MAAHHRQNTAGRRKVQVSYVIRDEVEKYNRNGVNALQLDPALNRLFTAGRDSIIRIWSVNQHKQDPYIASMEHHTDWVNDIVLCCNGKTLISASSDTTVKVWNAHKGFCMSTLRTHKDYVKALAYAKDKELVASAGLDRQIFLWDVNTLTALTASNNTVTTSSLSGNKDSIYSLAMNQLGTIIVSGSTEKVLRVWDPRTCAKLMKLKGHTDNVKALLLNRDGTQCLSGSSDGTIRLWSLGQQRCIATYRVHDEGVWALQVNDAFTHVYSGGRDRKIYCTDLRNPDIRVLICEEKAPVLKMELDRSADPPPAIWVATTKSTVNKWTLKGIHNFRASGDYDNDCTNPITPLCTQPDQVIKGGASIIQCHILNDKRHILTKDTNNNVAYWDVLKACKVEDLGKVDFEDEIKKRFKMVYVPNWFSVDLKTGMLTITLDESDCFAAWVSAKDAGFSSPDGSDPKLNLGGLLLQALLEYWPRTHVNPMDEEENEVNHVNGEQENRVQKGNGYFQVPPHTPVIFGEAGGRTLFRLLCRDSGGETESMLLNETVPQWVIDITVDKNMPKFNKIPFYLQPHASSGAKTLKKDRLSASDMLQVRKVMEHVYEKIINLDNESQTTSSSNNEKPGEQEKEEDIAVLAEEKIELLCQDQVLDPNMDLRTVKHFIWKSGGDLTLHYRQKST

Take `COc1cnc(-c2ccccc2C(C)C)nc1NCC1CCN(c2nc(C(F)(F)F)cn2C)CC1` [Example 65, 2-(2-Isopropylphenyl)-5-methoxy-N-((1-(1-methyl-4-(trifluoromethyl)-1H-imidazol-2-yl)piperidin-4-yl)methyl)pyrimidin-4-amine]: the IC50 was found to be 2.1 nM in test [1] and 2.4 nM in test [2].
The corresponding values for `COc1cnc(-c2ccccc2C(C)C)nc1NCc1ccc(-c2ccc(C)cn2)cc1` [Example 66, 2-(2-Isopropylphenyl)-5-methoxy-N-(4-(5-methylpyridin-2-yl)benzyl)pyrimidin-4-amine] are 5.6 nM and 14.6 nM.
The corresponding values for `CCOCCOc1ccc(CNc2nc(-c3ccccc3C(C)C)ncc2OC)cc1` [Example 68, N-(4-(2-Ethoxyethoxy)benzyl)-2-(2-isopropylphenyl)-5-methoxypyrimidin-4-amine] are 3.2 nM and 267 nM.
For `COc1cc(CNc2nc(-c3ccccc3C(C)C)ncc2OC)ccc1-n1nc(C(F)(F)F)cc1C` [Example 69, 2-(2-Isopropylphenyl)-5-methoxy-N-(3-methoxy-4-(5-methyl-3-(trifluoromethyl)-1H-pyrazol-1-yl)benzyl)pyrimidin-4-amine] the same measures were 9.2 nM and 709 nM.
Consider `CC(C)Oc1cnc(-c2ccccc2C(C)C)nc1N(C)CC1CCN(c2nc(C(F)(F)F)cn2C)CC1` [Example 70, 5-Isopropoxy-2-(2-isopropylphenyl)-N-methyl-N-((1-(1-methyl-4-(trifluoromethyl)-1H-imidazol-2-yl)piperidin-4-yl)methyl)pyrimidin-4-amine], for which the IC50 in test [1] turned out to be 19.4 nM; in test [2] it was 600 nM.
The corresponding values for `CC(C)Oc1cnc(-c2ccccc2C(C)C)nc1N(C)Cc1ccc(-c2nc(C(F)(F)F)cn2C)cc1` [Example 71, 5-Isopropoxy-2-(2-isopropylphenyl)-N-methyl-N-(4-(1-methyl-4-(trifluoromethyl)-1H-imidazol-2-yl)benzyl)pyrimidin-4-amine] are 9.9 nM and 274 nM.
As for `CC(C)Oc1cnc(-c2ccccc2C(C)C)nc1NCC1CCN(c2nc(C(F)(F)F)cn2C)CC1` [Example 72, 5-Isopropoxy-2-(2-isopropylphenyl)-N-((1-(1-methyl-4-(trifluoromethyl)-1H-imidazol-2-yl)piperidin-4-yl)methyl)pyrimidin-4-amine], the IC50 was 6.1 nM in test [1] and 181 nM in test [2].
As for `CC(C)Oc1cnc(-c2ccccc2C(C)C)nc1NCc1ccc(-c2nc(C(F)(F)F)cn2C)cc1` [Example 73, 5-Isopropoxy-2-(2-isopropylphenyl)-N-(4-(1-methyl-4-(trifluoromethyl)-1H-imidazol-2-yl)benzyl)pyrimidin-4-amine], the IC50 was 3.6 nM in test [1] and 112 nM in test [2].
With `CC(C)c1ccccc1-c1ncc(C(F)(F)F)c(NCC2CCN(c3nc(C(F)(F)F)cn3C)CC2)n1` [Example 75, 2-(2-Isopropylphenyl)-N-((1-(1-methyl-4-(trifluoromethyl)-1H-imidazol-2-yl)piperidin-4-yl)methyl)-5-(trifluoromethyl)pyrimidin-4-amine], the figures for the IC50 in test [1] and in test [2] were 3.7 nM and 331 nM, respectively.
Turning to `COc1cc(-c2nc(C(F)(F)F)cn2C)ccc1CNc1nc(-c2ccccc2C(C)C)nc2ccoc12` [Example 81, 2-(2-Isopropylphenyl)-N-(2-methoxy-4-(1-methyl-4-(trifluoromethyl)-1H-imidazol-2-yl)benzyl)furo[3,2-d]pyrimidin-4-amine], the IC50 in test [1] worked out at 3.7 nM; in test [2], 66.1 nM.
For `COc1cc(CNc2nc(-c3ccccc3C(C)C)nc3ccoc23)ccc1-c1nc(C(F)(F)F)cn1C` [Example 82, 2-(2-Isopropylphenyl)-N-(3-methoxy-4-(1-methyl-4-(trifluoromethyl)-1H-imidazol-2-yl)benzyl)furo[3,2-d]pyrimidin-4-amine] the same measures were 1.7 nM and 278 nM.
In the case of `COc1cc(-n2nc(C(F)(F)F)cc2C)ccc1CNc1nc(-c2ccccc2C(C)C)nc2ccoc12` [Example 83, 2-(2-Isopropylphenyl)-N-(2-methoxy-4-(5-methyl-3-(trifluoromethyl)-1H-pyrazol-1-yl)benzyl)furo[3,2-d]pyrimidin-4-amine], the IC50 was found to be 4.4 nM in test [1] and 99.1 nM in test [2].
Take `COc1cc(CNc2nc(-c3ccccc3C(C)C)nc3ccoc23)ccc1-n1nc(C(F)(F)F)cc1C` [Example 84, 2-(2-Isopropylphenyl)-N-(3-methoxy-4-(5-methyl-3-(trifluoromethyl)-1H-pyrazol-1-yl)benzyl)furo[3,2-d]pyrimidin-4-amine]: the results for the IC50 in test [1] and in test [2] were 9 nM and 704 nM, respectively.
`C#Cc1cnc(-c2ccccc2C(C)C)nc1NCc1ccc(-c2nc(C(F)(F)F)cn2C)cc1` [Example 85, 5-Ethynyl-2-(2-isopropylphenyl)-N-(4-(1-methyl-4-(trifluoromethyl)-1H-imidazol-2-yl)benzyl)pyrimidin-4-amine]: the IC50 is 0.47 nM in test [1] and 22.5 nM in test [2].
Turning to `CC(C)c1ccccc1-c1ncc(OC(F)F)c(NCc2ccc(-c3nc(C(F)(F)F)cn3C)cc2)n1` [Example 86, 5-(Difluoromethoxy)-2-(2-isopropylphenyl)-N-(4-(1-methyl-4-(trifluoromethyl)-1H-imidazol-2-yl)benzyl)pyrimidin-4-amine], the IC50 turned out to be 1.1 nM in test [1] and 29.4 nM in test [2].
For `CC(C)c1ccccc1-c1ncc(N2CCN(C)CC2)c(NCc2ccc(-c3nc(C(F)(F)F)cn3C)cc2)n1` [Example 88, 2-(2-Isopropylphenyl)-N-(4-(1-methyl-4-(trifluoromethyl)-1H-imidazol-2-yl)benzyl)-5-(4-methylpiperazin-1-yl)pyrimidin-4-amine], the values for the half-inhibitory concentration (IC50) in test [1] and in test [2] were 10 nM and 157 nM, respectively.
The corresponding values for `CC(C)c1ccccc1-c1ncc(O)c(NCc2ccc(-c3nc(C(F)(F)F)cn3C)cc2)n1` [Example 89, 2-(2-Isopropylphenyl)-4-((4-(1-methyl-4-(trifluoromethyl)-1H-imidazol-2-yl)benzyl)amino)pyrimidin-5-ol] are 14.4 nM and 243 nM.
For the molecule `COC(=O)Cc1cnc(-c2ccccc2C(C)C)nc1NCc1ccc(-c2nc(C(F)(F)F)cn2C)cc1` [Example 91, Methyl 2-(2-(2-isopropylphenyl)-4-((4-(1-methyl-4-(trifluoromethyl)-1H-imidazol-2-yl)benzyl)amino)pyrimidin-5-yl)acetate], the IC50 in test [1] is 1.3 nM; in test [2] it was 479 nM.
For `COc1cnc(-c2c(OC)ncnc2C2CC2)nc1N(C)CC1CCN(c2nc(C(F)(F)F)cn2C)CC1` [Example 92, 4'-Cyclopropyl-5,6'-dimethoxy-N-methyl-N-((1-(1-methyl-4-(trifluoromethyl)-1 H-imidazol-2-yl)piperidin-4-yl)methyl)-[2,5'-bipyrimidin]-4-amine] the same measures were 3.3 nM and 27.3 nM.
On to `COc1cnc(-c2c(OC)ncnc2C2CC2)nc1N(C)Cc1ccc(-c2nc(C(F)(F)F)cn2C(C)C)cc1` [Example 93, 4'-Cyclopropyl-N-(4-(1-isopropyl-4-(trifluoromethyl)-1H-imidazol-2-yl)benzyl)-5,6'-dimethoxy-N-methyl-[2,5'-bipyrimidin]-4-amine], for which the IC50 in test [1] is 1.5 nM; in test [2], 3.5 nM.
For `COc1cnc(-c2c(OC)ncnc2C2CC2)nc1NCc1ccc(-c2ccccn2)cc1` [Example 94, 4'-Cyclopropyl-5,6'-dimethoxy-N-(4-(pyridin-2-yl)benzyl)-[2,5'-bipyrimidin]-4-amine] the same measures were 6.5 nM and 275 nM.
The corresponding values for `COc1cnc(-c2c(OC)ncnc2C2CC2)nc1NCC1CCN(c2nc(C(F)(F)F)cn2C)CC1` [Example 95, 4'-Cyclopropyl-5,6'-dimethoxy-N-((1-(1-methyl-4-(trifluoromethyl)-1H-imidazol-2-yl)piperidin-4-yl)methyl)-[2,5'-bipyrimidin]-4-amine] are 8.4 nM and 75.1 nM.
`COc1cnc(-c2c(OC)ncnc2C2CC2)nc1NCc1ccc(-c2nc(C(F)(F)F)cn2C)cc1` [Example 96, 4'-Cyclopropyl-5,6'-dimethoxy-N-(4-(1-methyl-4-(trifluoromethyl)-1H-imidazol-2-yl)benzyl)-[2,5'-bipyrimidin]-4-amine]: the IC50 in test [1] amounted to 4.8 nM; in test [2], 12 nM.
As for `COc1cnc(-c2c(OC)ncnc2C2CC2)nc1NCc1ccc(OCc2ccccn2)cc1` [Example 98, 4'-Cyclopropyl-5,6'-dimethoxy-N-(4-(pyridin-2-ylmethoxy)benzyl)-[2,5'-bipyrimidin]-4-amine], the IC50 in test [1] was found to be 144 nM; in test [2], 694 nM.
